Results from patent US12122821B2, “Regulation of glucose metabolism using anti-CGRP antibodies” (H. LUNDBECK A/S, priority 2013, dated 2024).

Legend:
Normal rats = assay: Individual tissue glucose utilization rate (14C-2-DOG) during clamp in normal rats (Example 1); type: in vivo, rat; conditions: Ab14 100 mg/kg i.v., metformin 500 mg/kg p.o., vs vehicle
Experimental: To determine the individual tissue glucose utilization rate, a bolus injection of 100 μCi per rat of deoxy-D-glucose 2-^14C (^14C-2-DOG) through the femoral vein was performed 60 min before the end of the D-[3-^3H]-glucose infusion. Plasma ^14C-2-DOG disappearance and glucose concentration were determined in 10 μL drops of blood sampled from the tip of the tail vein at 0, 5, 10, 15, 20, 25, 30, 45, and 60 minutes after the injection. At the end of the experiment, vastus lateralis (VL), extensor digitorum longus (EDL) and soleus muscles, epididymal and inguinal white adipose tissues, heart apex, and skin (as negative control) were dissected, flash frozen and kept at −80° C. A piece of each tissue was dissolved in 1M NaOH and then neutralized with 1M HCl. […]. D-2-^14C deoxyglucose was differentially precipitated by the use of a zinc hydroxide (0.3M) solution or a perchloric acid solution (6%). Both radioactivity contents were measured to evaluate the glucose uptake expressed as ng/mg/min.

[1] = tested on: Zucker diabetic fatty (ZDF) rat; assay: Plasma triglycerides, free fatty acids and cholesterol in ZDF rats (Example 3); type: in vivo; conditions: for increase of free fatty acids levels: vs vehicle ZDF, not significant
Experimental: (§1) For the groups treated with AB14, the antibody was administered once weekly via the caudal vein (i.v., 5 mL/kg) on days 1, 8, 15, and 22 at two different doses 20 mg/kg/week (groups 3 and 7) or 60 mg/kg/week (groups 4 and 8). All other groups were treated once weekly with vehicle 1 (i.v., 5 mL/kg). The intravenous treatments were performed in the morning on day 1, 8, 15, and 22 while under isoflurane anaesthesia. The volume of administration was individually adapted according to the most recent body weight.
(§2) All other groups were treated daily with vehicle 2 (p.o., 5 mL/kg) for 28 days. The most recent body weight was used to calculate the average volume of administration in each group.
(§3) A fasting (6 hours on day 0 from 8:00 am to 02:00 pm, and overnight on day 12, 19 and 26 from ˜6:00 pm to ˜8:00 am) was performed before each blood collection. Blood was collected at ˜2:00 pm, from the tip of the tail, on day 0 (before screening, 150 μL, potassium EDTA), and at ˜8:00 am prior to dosing on days 12 (110 μL, potassium EDTA), 19 (150 μL, potassium EDTA) and 26, (110 μL, potassium EDTA).
(§4) Fasting blood glucose (glucometers) was measured on days 0, 12, 19, and 26. Fasting plasma insulin, peptide-C (ELISA method), free fatty acids, triglycerides, total cholesterol (colorimetric method), and HDL-cholesterol (phosphotungstate precipitation, colorimetric method) were measured on day 0, and prior to dosing on days 12, 19, and day 26. Non HDL-cholesterol was calculated as total cholesterol—HDL-cholesterol. Fructosamine was measured on days 0, 19 and 28. HbA1c (DCA 2000) was measured on days 0 and 28.

[2] = tested on: Zucker diabetic fatty (ZDF) rat; assay: Oral glucose tolerance test on day 26 in ZDF rats (Example 3); type: in vivo
Experimental: The oral glucose tolerance test (OGTT) was performed as follows. On day 25, rats were fasted at ˜6:00 pm and an oral glucose tolerance test was performed the day after (on day 26). At ˜8:00 am (T-60) a blood collection (110 μL, EDTA) was performed for biochemical parameters measurements. One hour after (˜09:00 am), an oral glucose bolus (1.5 g/kg) was administered (T0). Blood glucose was measured (glucometer or colorimetric method in case of high glycaemia) on T-60, T0, T15, T30, T60, T90, T120, and T180 minutes. Area under the curve (AUC) was calculated based on the blood glucose values measured at T0. Plasma insulin and C-peptide were measured (ELISA method) on T-60, T15 (·40 μL of blood, EDTA), and T30 minutes (·40 μL of blood, EDTA).

[3] = tested on: Zucker diabetic fatty (ZDF) rat; assay: Pancreas insulin and proinsulin content in ZDF rats (Example 3); type: in vivo; conditions: day 28, AB14 60 mg/kg, metformin 200 mg/kg/day, alone or combined, vs vehicle
Experimental: After 2 hours of food restriction (from 8:00 am to 10:00 am) 80 rats from the study were anesthetized on day 28 with isoflurane. Blood was collected (˜3000 μL from abdominal vein, on K2-EDTA) for the determination of AB14 plasma concentrations. Plasma (3 aliquots of ˜200 μL) was kept at −80° C. until testing. The pancreas tissue was then excised. Rats were euthanized by incision of the abdominal vein and aorta.
Each pancreas was divided into 2 parts (longitudinal cut).
Each pancreas sample was homogenized in an acid buffer, and insulin and proinsulin content were measured using ELISA kits in the following groups: […]

[4] = tested on: Zucker diabetic fatty (ZDF) rat; assay: Fasting blood glucose, plasma insulin, C-peptide and HOMA-IR in ZDF rats (Example 3); type: in vivo; conditions: for increase of plasma C-peptide levels / increase of plasma insulin levels: vs vehicle ZDF; for increase of plasma C-peptide levels: NS; for increase of plasma insulin levels: ns
Experimental: as §1, §2, §3, §4

[5] = day 12, metformin 200 mg/kg/day
[6] = day 19, metformin 200 mg/kg/day
[7] = day 26, metformin 200 mg/kg/day

## CN(C)C(=N)N=C(N)N [metformin, reference compound]
Normal rats
  change of glucose utilization in the heart: −39%
  glucose utilization rate in white adipose tissues (deep and subcutaneous): did not affect
  increase of glucose utilization in mixed vastus lateralis muscle (VL): 49%
Normal rats; NS
  increase of glucose utilization in glycolytic extensor digitorum longus muscle (EDL): 19%
[1]; day 12, metformin 200 mg/kg/day, vs vehicle
  increase of plasma triglycerides levels: 26%
[1]; [5]
  increase of free fatty acids levels: 14%
[1]; day 19, metformin 200 mg/kg/day, vs vehicle
  increase of plasma triglycerides levels: 40%
[1]; [6]
  increase of free fatty acids levels: 25%
[1]; day 26, metformin 200 mg/kg/day, vs vehicle
  increase of plasma triglycerides levels: 49%
[1]; [7]
  increase of free fatty acids levels: 8%
[1]; metformin 200 mg/kg/day alone or in combination with AB14, vs vehicle
  non HDL-cholesterol levels: no effect
[1]; metformin 200 mg/kg/day alone, vs vehicle
  plasma HDL-cholesterol: no effect
[2]; day 26, metformin 200 mg/kg/day, pioglitazone 10 mg/kg/day, vs vehicle
  plasma insulin and C-peptide levels 15 and 30 minutes after the glucose load: slightly increased
[2]; day 26, pioglitazone 10 mg/kg/day, metformin 200 mg/kg/day, vs vehicle ZDF
  reduction in blood glucose AUC (OGTT): 6%
[3]
  pancreas proinsulin levels: completely prevented reductions
  pancreatic insulin levels: significantly increased
[4]; [5]
  increase of plasma C-peptide levels: 23%
  increase of plasma insulin levels: 79%
[4]; [6]
  increase of plasma C-peptide levels: 21%
  increase of plasma insulin levels: 55%
[4]; day 19 and 26, metformin 200 mg/kg
  fasting blood glucose, effect: not observed
[4]; [7]
  increase of plasma C-peptide levels: 9%
  increase of plasma insulin levels: 48%
[4]; days 12, 19 and 26, metformin 200 mg/kg/day alone or in combination with AB14, vs vehicle ZDF
  HOMA-IR: increase of HOMA-IR
